Source: patent US10441560B2, “Compositions and methods for treating non-alcoholic steatohepatitis” (priority 2013, dated 2019)

Columns and labels:
CYP450 = settings: at free concentrations observed in humans; previous studies; cited from earlier work
pylorus-ligated rats = experiment: Gastric fluid levels in pylorus-ligated rats; format: in vivo; settings: 3000 mg/kg oral dose
[1] = test system: galactosamine-induced steatohepatitis mouse model; experiment: Galactosamine-induced steatohepatitis mouse model; format: in vivo; settings: oral administration at 1000 mg/kg
[2] = parameters: species or system dogs; settings: dog, in vivo, po, 30 mg/kg, 1 week
Method: (§1) Consequently, when EPA-E is administered orally to humans, it would appear that it is well absorbed, even though the unchanged ethyl ester form is not detected, and the free form (EPA) is only detected at a very low level, in the blood. Due to this absorption mechanism of essential fatty acids, the administered EPA-E exists as a blood-constituent fatty acid in the total lipids. In fact, according to the approval package document of Lovaza®, the free form of EPA is undetectable in the circulation (<1 μM) following an oral dose of 4 g of Omacor® (a mixture of the ethyl esters of EPA and DHA) Following oral administration of EPA-E, EPA, DPA and DHA were isolated and identified as metabolites in tissues and plasma. EPA, DPA and DHA were incorporated into TG and PL. Radioactivity was primarily excreted in expired air (44%) after single oral administration at 30 mg/kg EPA-E with minimal excretion in bile and urine (˜3%) and approximately 20% excreted in feces.

[3] = test system: diet-induced hepatic steatosis model; experiment: Mouse diet-induced hepatic steatosis model; format: in vivo; settings: repeat oral administration at ≥0.1 mg/g
arteries = experiment: Preservation of elasticity of arteries; format: in vivo; settings: rabbits
[4] = Lipid lowering in animal studies; format: in vivo; settings: rats, hamsters and rabbits
[5] = Absorption, distribution and metabolites after oral 14C-EPA-E in rats; format: in vivo
Method: (§2) After administration of ^14C-EPA-E into the ligated intestine of rats, the residual radioactivity in the intestine at 24 hours was only 4.6% of the administered dose. Radioactivity transferred to the plasma and lymph was mainly detected in the triglyceride (TG) fraction in the early phase after dosing, while distribution to the free fatty acid (FFA) fraction was slight at all timepoints. […] Orally administered EPA-E was primarily incorporated in adrenal gland lipids as cholesterol esters of the fatty acids eicosapentaenoic acid (EPA), docosapentaenoic acid (DPA) and docosahexaenoic acid (DHA).
After oral administration of ^14C-EPA-E to the rat, EPA, DPA and DHA were detected as metabolites in the total lipid fraction of the plasma and tissues (liver, fat, heart and brain). […] In the total lipid fraction of the liver, the radioactivity originated mainly from EPA, DPA and DHA. Thus, it is considered that EPA, DPA and DHA are the predominant metabolites of ^14C-EPA-E in tissues, as constituent fatty acids of the total lipid fraction.

[6] = Excretion of radioactivity after single oral administration (rat); format: in vivo, rats
Method: EPADEL is a product containing ethyl all-cis-5,8,11,14,17-eicosapentaenoate (EPA-E), one of the n−3 essential fatty acids. The preclinical absorption, distribution, metabolism and excretion (ADME) characteristics of EPA-E have been determined primarily in rats.
as §1
Renal excretion was the elimination route for several minor highly polar metabolites (<0.4%), but EPA-E, EPA, DPA or DHA were not detected in the urine. In feces, EPA-E and EPA, evidently derived from the unabsorbed drug, were detected; however, no DPA or DHA was detected in the feces.

NASH = experiment: Phase II double blind, placebo-controlled clinical trial of EPA-E in subjects with NASH; format: in vivo, human
Source text: This example provides the protocol used for an ongoing phase II clinical trial, double blind, placebo-controlled study to investigate the safety, efficacy, and pharmacokinetic profile of two doses of EPA-E in subjects with NASH. Up to 70 subjects were enrolled into each treatment arm, for a total of 210 subjects to be enrolled. Block randomization using an interactive voice response system (IVRS) was used to assign patients in a 1:1:1 ratio to two active doses and placebo. Patients were stratified at randomization by presence or absence of diabetes. Patients with diabetes comprised no more than 25% of the total number of patients enrolled. […] Subjects were required to have a liver biopsy with proven NASH in the 6 month period prior to screening. The Pharmacokinetic profile for EPA-E was evaluated in a subgroup of subjects in specified sites. Subjects were approached prior to providing informed consent to determine if they will participate in the PK group subset. Approximately 36 subjects participated in the PK subset evaluation (12 from each treatment arm, to include 6 males and 6 females). Overall study duration plan was 2 years. In order to support the trial, EPA-E capsules and matching placebo capsules were prepared. EPA-E capsule is an oval soft gelatin capsule containing 300 mg of EPA-E as an active ingredient. […] These capsules are unidentifiable as EPA-E capsules or placebo capsules. Subjects were administered orally 3 capsules 3 times daily, immediately after meals. Subjects were potentially included into the study if they met all the following criteria: • 1. Diagnosis of definite NASH by the central reading pathologists: • Liver biopsy slides will be submitted for evaluation by the central pathologists according to one of the following criteria: • a. Previous liver biopsies must have been obtained within 6 months prior to informed consent and should be judged by the local pathologist as showing NAS ≥4 with a minimum score of 1 each for steatosis and lobular inflammation plus […] ballooning OR at least 1a sinusoidal fibrosis AND a finding of possible or definite steatohepatitis • b. For liver biopsies performed after informed consent is obtained, all slides will be submitted for reading by the central pathologists in conformity with the independent pathology review charter (IPRC) • 2. Patients of either gender greater than 18 years of age • 3. Patients with diabetes that have been on stable doses of anti-diabetic agents since at least 6 months prior to liver biopsy may be enrolled • 4. Females must be of non-child bearing potential (surgically sterilized or at least two years post-menopausal) or if of child-bearing potential, must have a negative pregnancy test at screening and agree to use an effective form of contraception during the study and for at least 30 days following the last dose of study medication • 5. Normal ECG or clinically non-significant findings at the Screening and Baseline visits • 6. No significant concomitant medical illness, without any clinically significant physical exam findings and without any clinically significant laboratory findings, as determined by the principal investigator • 7. […] Inability or unwillingness to have a liver biopsy • 2. Diagnosis of cirrhosis by central pathology reviewers • 3. Previous bariatric surgery or biliary diversion (i.e. gastric bypass), esophageal banding and gastric banding • 4. Serum ALT>300 U/L • 5. Subject has used drugs associated with steatohepatitis within 6 months prior to screening (corticosteroids, high dose estrogens, methotrexate, amiodarone, anti-HIV drugs, tamoxifen, diltiazem) • 6. Use of the following anti-NASH agents for more than a 2 week period in the 3 months prior to liver biopsy or the 3 months prior to screening: • a. Vitamin E>60 IU per day • b. Omega-3-acid ethyl esters or omega-3-PUFA-containing supplements >200 mg per day • c. Thiazoledinediones (e.g. pioglitazone) • 7. […]

[7] = test system: methionine-choline deficient diet rat model of nonalcoholic steatohepatitis; experiment: Methionine-choline deficient diet rat model of nonalcoholic steatohepatitis; format: in vivo; settings: repeat oral administration at 1000 mg/kg
[8] = test system: central nervous, autonomic nervous, respiratory and cardiovascular systems; experiment: Safety pharmacology studies; format: in vivo; settings: oral doses up to 3000 mg/kg
ligated intestine = experiment: Administration of 14C-EPA-E into the ligated intestine of rats; format: in vivo; settings: at 24 hours
Method: as §2

[9] = Hydrolysis in rat small intestine homogenates, lymph, plasma and liver homogenates; format: in vitro ADME
[10] = single oral administration at 30 mg/kg

Structure (SMILES): CC/C=C\C/C=C\C/C=C\C/C=C\C/C=C\CCCC(=O)O [EPA, Eicosapentaenoic acid]
- CYP450 inhibition (CYP450): unlikely to inhibit CYP450

Structure (SMILES): CC/C=C\C/C=C\C/C=C\C/C=C\C/C=C\CCCC(=O)OCC [EPA-E, ethyl all-cis-5,8,11,14,17-eicosapentaenoate]
- gastric fluid levels (pylorus-ligated rats): reduction in gastric fluid levels
- progression of steatohepatitis [1]: retarded progression of steatohepatitis
- triglyceride (TG) accumulation [1]: suppressing triglyceride (TG) accumulation
- radioactivity excreted in the urine [2]: 1.0%
- radioactivity recovered in the feces [2]: 19.2%
- fat accumulation [3]: suppressed fat accumulation
- hepatic SREBP-1c levels [3]: suppressing hepatic SREBP-1c levels
- monounsaturated fatty acid (MUFA) synthesis by SCD1 [3]: suppressing
- elasticity of arteries (arteries): preserve the elasticity of arteries
- lipids [4]: lower lipids
- absorption ([5]; single oral dose 30-1000 mg/kg, rats): well-absorbed
- radioactivity excreted in expired air ([6]; rat, in vivo, po, 30 mg/kg): 44%
- radioactivity excreted in bile and urine [6, 10]: ~3%
- radioactivity excreted in feces [6, 10]: approximately 20%
- EPA-E in the urine ([6]; urine): not detected
- response rate (NASH; fasting glucose =<125 mg/dL and HbA1c =<6.4, Study arm 1, FIG. 4): higher response to rate
- efficacy (responders) (NASH; fasting glucose =<125 mg/dL and HbA1c =<6.4, Study arm 2): equivalent to that of Study arm 1
- NASH response (change of NAS score) (NASH; patients with GGT levels =<33 IU/L, Study arm 1 and 2, FIG. 9, preliminary): higher efficacy
- efficacy (preliminary endpoint achievement rate v. GGT) (NASH; patients with GGT levels =<60 IU/L, Study arm 1 and 2, FIG. 8, preliminary): higher efficacy
- improvement of serum EPA/AA ratio on Day 365 (NASH; patients with GGT ≤33 IU/L, Study arm 2, FIG. 10, preliminary): higher efficacy
- serum EPA/AA ratio over time (NASH; patients with GGT ≤33 IU/L, Study arm 2, FIG. 12): significant increase
- efficacy (responders) (NASH; patients with HbA1c levels =<6.4, Study arm 1, FIG. 2, preliminary): higher efficacy
- efficacy (responders) (NASH; patients with HbA1c levels =<6.4, Study arm 2, preliminary): equivalent to that of Study arm 1
- efficacy (responders) (NASH; patients with fasting glucose =<125 mg/dL, Study arm 1, FIG. 3, preliminary): higher efficacy
- efficacy (responders) (NASH; patients with fasting glucose =<125 mg/dL, Study arm 2, preliminary): equivalent to that of Study arm 1
- efficacy (responders) (NASH; patients without biliary tract disease markers (GGT ≤33 IU/L), Study arm 1 (600 mg TID) and Study arm 2 (900 mg TID), FIG. 7, preliminary): higher efficacy
- efficacy (responders: NAS Score ≤3 or improvement of ≥2 across at least 2 of NAS components) (NASH; patients without diabetes or with mild diabetes compared to diabetic patients, Study arm 1 (600 mg EPA-E, TID), FIG. 1, preliminary): higher efficacy
- efficacy (responders: NAS Score ≤3 or improvement of ≥2 across at least 2 of NAS components) (NASH; patients without diabetes or with mild diabetes, Study arm 2 (900 mg EPA-E, TID), preliminary): equivalent to that of Study arm 1
- fibrosis [7]: inhibited fibrosis
- inflammation and oxidative stress [7]: suppressing inflammation and oxidative stress
- effect on the central nervous, autonomic nervous, respiratory and cardiovascular systems [8]: no effect

Structure (SMILES): CC/C=C\C/C=C\C/C=C\C/C=C\C/C=C\CCCC(=O)OCC [^14C-EPA-E]
- residual radioactivity in the intestine (ligated intestine): 4.6 % of the administered dose
- hydrolysis [9]: hydrolyzed rapidly
- unchanged EPA-E in the plasma or tissues ([5]; rat, oral administration, plasma, liver, fat, heart and brain): no unchanged EPA-E was found
- distribution of radioactivity in body tissues ([5]; rats, oral 14C-EPA-E): widely distributed in the body tissues
